Several values for one entry are separate records, joined by “and”; a condition that tells them apart may be missing. Identical values can stand only once.
Test system: C57BL/6 mice, Adenocarcinoma 755 sc, tumor weight T/C
Test: NCI In Vivo Anticancer Drug Screen. Data for tumor model Adenocarcinoma 755 (subcutaneous) in C57BL/6 mice
Details: endpoint: mean tumor weight, higher = larger tumour
Method: The antitumor activity of compounds was measured in mice bearing transplantable tumors. Survival or tumor size were measured and the results are expressed as the measurement made in the treated group (T) divided by the measurement made in the vehicle treated control group (C). The tumor model used in this assay is Adenocarcinoma 755 (subcutaneous) in C57BL/6 mice

[1] = dose: 4.0 mg/kg/injection, schedule: Q01DX011 (ip), vehicle: saline
[2] = dose: 8.0 mg/kg/injection, schedule: Q01DX011 (ip), vehicle: saline
[3] = dose: 10.0 mg/kg/injection, schedule: Q01DX011 (ip), vehicle: saline
[4] = dose: 25.0 mg/kg/injection, schedule: Q01DX011 (ip), vehicle: carboxymethylcellulose (CMC)
[5] = dose: 50.0 mg/kg/injection, schedule: Q02DX006 (ip), vehicle: other
[6] = dose: 100.0 mg/kg/injection, schedule: Q01DX011 (ip), vehicle: saline
[7] = dose: 75.0 mg/kg/injection, schedule: Q01DX011 (ip), vehicle: saline
[8] = dose: 200.0 mg/kg/injection, schedule: Q01DX011 (ip), vehicle: saline

With `C=CC(CN1CC1)OC(C)=O` (stereo not drawn) the T/C (dose: 1.0 mg/kg/injection, schedule: Q01DX011 (oral), vehicle: saline) was 63 % of control, the T/C (dose: 1.0 mg/kg/injection, schedule: Q#A X022 (ip), vehicle: saline) was 92 % of control and the T/C (dose: 2.0 mg/kg/injection, schedule: Q01DX011 (ip), vehicle: saline) was 66 % of control. For the same compound, the T/C (dose: 2.0 mg/kg/injection, schedule: Q01DX011 (oral), vehicle: saline) was 49 % of control, the T/C (dose: 2.0 mg/kg/injection, schedule: Q#A X022 (ip), vehicle: saline) was 43 % of control and the T/C (dose: 3.25 mg/kg/injection, schedule: Q01DX011 (oral), vehicle: saline) was 38 % of control. The T/C [1] was 38 % of control, the T/C (dose: 4.0 mg/kg/injection, schedule: Q01DX011 (oral), vehicle: saline) was 26 % of control and the T/C (dose: 4.0 mg/kg/injection, schedule: Q01DX011 (sc), vehicle: saline) was 14 % of control. For the same compound, the T/C (dose: 6.0 mg/kg/injection, schedule: Q03DX004 (ip), vehicle: saline) was 88 % of control, the T/C (dose: 7.5 mg/kg/injection, schedule: Q01DX011 (oral), vehicle: saline) was 15 % of control and the T/C [2] was 17 % of control. For the same compound, the T/C (dose: 8.0 mg/kg/injection, schedule: Q01DX011 (oral), vehicle: saline) was 21 % of control, the T/C (dose: 8.0 mg/kg/injection, schedule: Q01DX011 (sc), vehicle: saline) was 8 % of control and the T/C (dose: 12.0 mg/kg/injection, schedule: Q03DX004 (ip), vehicle: saline) was 59 % of control. For the same compound, the T/C (dose: 16.0 mg/kg/injection, schedule: Q01DX011 (oral), vehicle: saline) was 5 % of control and the T/C (dose: 24.0 mg/kg/injection, schedule: Q03DX004 (ip), vehicle: saline) was 11 % of control.
For `Nc1c(Br)cc2c(c1Br)Cc1cc([N+](=O)[O-])ccc1-2`, the T/C (dose: 31.3 mg/kg/injection, schedule: Q01DX011 (ip), vehicle: saline) was 17 % of control and the T/C (dose: 125.0 mg/kg/injection, schedule: Q01DX011 (ip), vehicle: saline) was 17 % of control.
`CSc1nc(N)nc2nc[nH]c12` was tested, and the T/C [3] was 1 % of control and the T/C (dose: 15.0 mg/kg/injection, schedule: Q01DX011 (ip), vehicle: saline) was 1 % of control.
With `Clc1ncnc2c1ncn2C1CCCC1` the T/C [4] was 79 % of control, the T/C (dose: 50.0 mg/kg/injection, schedule: Q01DX011 (ip), vehicle: carboxymethylcellulose (CMC)) was 118 % of control and the T/C (dose: 75.0 mg/kg/injection, schedule: Q01DX011 (ip), vehicle: carboxymethylcellulose (CMC)) was 71 % of control. The T/C (dose: 100.0 mg/kg/injection, schedule: Q01DX011 (ip), vehicle: carboxymethylcellulose (CMC)) was 18 % of control.
`Nc1nc(=S)c2[nH]cnc2[nH]1` was tested, and the T/C (dose: 0.06 mg/kg/injection, schedule: Q01DX011 (ip), vehicle: carboxymethylcellulose (CMC)) was 81 % of control, the T/C (dose: 0.13 mg/kg/injection, schedule: Q01DX011 (ip), vehicle: carboxymethylcellulose (CMC)) was 111 % of control and the T/C (dose: 0.25 mg/kg/injection, schedule: Q01DX011 (ip), vehicle: carboxymethylcellulose (CMC)) was 18 % of control. For the same compound, the T/C (dose: 0.5 mg/kg/injection, schedule: Q01DX011 (ip), vehicle: carboxymethylcellulose (CMC)) was 7 % of control and 8 % of control, the T/C (dose: 0.5 mg/kg/injection, schedule: Q01DX011 (ip), vehicle: saline) was 3 % of control and the T/C (dose: 1.0 mg/kg/injection, schedule: Q01DX011 (ip), vehicle: carboxymethylcellulose (CMC)) was 7 % of control.
With `O=c1[nH]cc(Br)c(=O)[nH]1` the T/C [5] was 56 % of control and the T/C (dose: 75.0 mg/kg/injection, schedule: Q02DX006 (ip), vehicle: other) was 71 % of control.
With `O=c1[nH]cc(S)c(=O)[nH]1` the T/C (dose: 100.0 mg/kg/injection, schedule: Q02DX006 (ip), vehicle: other) was 86 % of control and the T/C (dose: 125.0 mg/kg/injection, schedule: Q02DX006 (ip), vehicle: other) was 76 % of control.
In the case of `Nc1nc(=O)[nH]c2n[nH]nc12`, the T/C (dose: 5.0 mg/kg/injection, schedule: Q01DX011 (ip), vehicle: carboxymethylcellulose (CMC)) is reported as 82 % of control, the T/C (dose: 10.0 mg/kg/injection, schedule: Q01DX011 (ip), vehicle: carboxymethylcellulose (CMC)) is reported as 79 % of control and the T/C [4] is reported as 64 % of control.
For `CN(C)C1C(=O)C(C(N)=O)=C(O)C2(O)C(=O)C3=C(O)c4c(O)cccc4C(C)(O)C3C(O)C12` (stereo not drawn), the T/C (dose: 125.0 mg/kg/injection, schedule: Q02DX006 (ip), vehicle: water) was 58 % of control and the T/C (dose: 150.0 mg/kg/injection, schedule: Q02DX006 (ip), vehicle: water) was 106 % of control.
For `O=CNC(Cc1ccc(N(CCCl)CCCl)cc1)C(=O)O` (stereo not drawn), the T/C (dose: 40.0 mg/kg/injection, schedule: Q01DX011 (ip), vehicle: carboxymethylcellulose (CMC)) was 39 % of control and the T/C (dose: 80.0 mg/kg/injection, schedule: Q01DX011 (ip), vehicle: carboxymethylcellulose (CMC)) was 1 % of control.
`Cc1c2ccccc2c(C)c2c1ccc1ccccc12` was tested, and the T/C (dose: 9.0 mg/kg/injection, schedule: Q01DX011 (ip), vehicle: saline) was 44 % of control and the T/C (dose: 19.0 mg/kg/injection, schedule: Q01DX011 (ip), vehicle: saline) was 19 % of control.
With `N=[N+]=CC(=O)OCC(N)C(=O)O` (stereo not drawn) the T/C [1] was 31 % of control and the T/C [2] was 46 % of control.
For `O=[N+]([O-])c1ccc(CSc2ncnc3nc[nH]c23)cc1`, the T/C [6] was 4 % of control.
`N=C(N)CCNC(=O)C1CCC(N)=N1` (stereo not drawn) was tested, and the T/C (dose: 4.0 mg/kg/injection, schedule: Q02DX006 (ip), vehicle: saline) was 59 % of control, the T/C (dose: 6.0 mg/kg/injection, schedule: Q02DX006 (ip), vehicle: saline) was 29 % of control and 53 % of control and the T/C (dose: 10.0 mg/kg/injection, schedule: Q02DX006 (ip), vehicle: saline) was 44 % of control.
With `Nc1nc(SCc2ccccc2)c2[nH]cnc2n1` the T/C (dose: 2.5 mg/kg/injection, schedule: Q01DX011 (ip), vehicle: saline) was 17 % of control, the T/C (dose: 5.0 mg/kg/injection, schedule: Q01DX011 (ip), vehicle: saline) was 5 % of control and the T/C [3] was 2 % of control.
For `Nc1nc2n[nH]nc2c(=O)[nH]1`, the T/C (dose: 37.5 mg/kg/injection, schedule: Q01DX007 (sc), vehicle: carboxymethylcellulose (CMC)) was 51 % of control and 66 % of control, the T/C (dose: 37.5 mg/kg/injection, schedule: Q01DX011 (ip), vehicle: saline) was 10 % of control and the T/C (dose: 37.5 mg/kg/injection, schedule: Q01DX011 (sc), vehicle: saline) was 25 % of control. The T/C (dose: 50.0 mg/kg/injection, schedule: Q01DX011 (sc), vehicle: saline) was 16 % of control, the T/C [5] was 57 % of control and the T/C (dose: 60.0 mg/kg/injection, schedule: Q02DX006 (ip), vehicle: other) was 64 % of control. The T/C [7] was 6 % of control, the T/C (dose: 75.0 mg/kg/injection, schedule: Q01DX011 (sc), vehicle: saline) was 4 % of control and the T/C (dose: 100.0 mg/kg/injection, schedule: Q01DX007 (sc), vehicle: carboxymethylcellulose (CMC)) was 5 % of control and 14 % of control.
In the case of `N/C(=N/N=C/c1ccc([N+](=O)[O-])cc1)N[N+](=O)[O-]`, the T/C (dose: 150.0 mg/kg/injection, schedule: Q02DX006 (ip), vehicle: saline) is reported as 53 % of control and the T/C (dose: 200.0 mg/kg/injection, schedule: Q02DX006 (ip), vehicle: saline) is reported as 37 % of control.
In the case of `O=c1[nH][nH]c(=O)[nH]1`, the T/C [8] is reported as 85 % of control and the T/C (dose: 225.0 mg/kg/injection, schedule: Q01DX011 (ip), vehicle: saline) is reported as 94 % of control.
With `c1cn[nH]c1` the T/C (dose: 8.0 mg/kg/injection, schedule: Q01DX006 (iv), vehicle: saline) was 64 % of control, the T/C (dose: 12.5 mg/kg/injection, schedule: Q01DX011 (oral), vehicle: saline) was 61 % of control and the T/C (dose: 25.0 mg/kg/injection, schedule: Q01DX011 (oral), vehicle: saline) was 45 % of control. The T/C (dose: 32.0 mg/kg/injection, schedule: Q01DX006 (iv), vehicle: saline) was 94 % of control, the T/C (dose: 50.0 mg/kg/injection, schedule: Q01DX011 (oral), vehicle: saline) was 9 % of control and the T/C (dose: 64.0 mg/kg/injection, schedule: Q01DX006 (iv), vehicle: saline) was 53 % of control.
For `Clc1ccccc1CSc1ncnc2nc[nH]c12`, the T/C [7] was 13 % of control, the T/C [6] was 5 % of control and the T/C (dose: 150.0 mg/kg/injection, schedule: Q01DX011 (ip), vehicle: saline) was 1 % of control. The T/C [8] was 13 % of control.
`[I][Hg][CH2]C1OCCOC1[CH2][Hg][I]` (stereo not drawn) was tested, and the T/C (dose: 4.0 mg/kg/injection, schedule: Q01DX011 (ip), vehicle: carboxymethylcellulose (CMC)) was 84 % of control, the T/C (dose: 8.0 mg/kg/injection, schedule: Q01DX011 (ip), vehicle: carboxymethylcellulose (CMC)) was 46 % of control and the T/C (dose: 16.0 mg/kg/injection, schedule: Q01DX011 (ip), vehicle: carboxymethylcellulose (CMC)) was 34 % of control. For the same compound, the T/C (dose: 32.0 mg/kg/injection, schedule: Q01DX011 (ip), vehicle: carboxymethylcellulose (CMC)) was 44 % of control.
In the case of `Clc1cc(N2CC2)nc(N2CC2)n1`, the T/C (dose: 5.0 mg/kg/injection, schedule: Q02DX006 (ip), vehicle: other) is reported as 79 % of control, the T/C (dose: 7.5 mg/kg/injection, schedule: Q02DX006 (ip), vehicle: other) is reported as 72 % of control and the T/C (dose: 10.0 mg/kg/injection, schedule: Q02DX006 (ip), vehicle: other) is reported as 18 % of control.

From PubChem BioAssay AID218 (DTP/NCI, 2004)
